Reference: ChEMBL document CHEMBL5252572, “Design, synthesis, and anti-triple negative breast cancer activity of novel Toosendanin derivatives” (Bioorg Med Chem Lett, 2023)
Structures can show the parent of a compound that is named as a salt. Active and inactive are the calls of the source. The rule behind the calls is not given here.

Experiments:
HCC1806 [1] = experiment: Antiproliferative activity against human HCC1806 cells assessed as inhibition of cell growth at 20 uM by SRB assay relative to control; type: functional
MDA-MB-231 [2] = experiment: Antiproliferative activity against human MDA-MB-231 cells assessed as inhibition of cell growth at 20 uM by SRB assay relative to control; type: functional
MDA-MB-231 [3] = experiment: Antiproliferative activity against human MDA-MB-231 cells assessed as inhibition of cell growth by SRB assay; type: functional, cell-based
[4] = biological target: RAC-alpha serine/threonine-protein kinase (Homo sapiens) (UniProt P31749); experiment: Inhibition of AKT phosphorylation in human HCC1806 cells at 10 uM incubated for 24 hrs by Western blot analysis; type: cell-based
HCC1806 [5] = experiment: Antitumor activity against human HCC1806 cells assessed as induction of p21 protein accumulation at 10 uM incubated for 24 hrs by Western blot analysis; type: functional, cell-based
HCC1806 [6] = experiment: Induction of cell cycle arrest in human HCC1806 cells assessed as decrease in G2/M phase cells at 10 uM incubated for 24 hrs by flow cytometric analysis; type: functional, cell-based
HCC1806 [7] = experiment: Induction of cell cycle arrest in human HCC1806 cells assessed as accumulation at S phase at 10 uM incubated for 24 hrs by flow cytometric analysis; type: functional, cell-based
HCC1806 [8] = experiment: Antitumor activity against human HCC1806 cells assessed as reduction in p53 protein level at 10 uM incubated for 24 hrs by Western blot analysis; type: functional, cell-based
HCC1806 [9] = experiment: Antiproliferative activity against human HCC1806 cells assessed as inhibition of cell growth by SRB assay; type: functional, cell-based
HCC1806 [10] = experiment: Inhibition of ERK phosphorylation in human HCC1806 cells at 10 uM incubated for 24 hrs by Western blot analysis; type: cell-based
4T1 [11] = experiment: Antitumor activity against mouse 4T1 cells implanted in BALB/C mouse assessed as tumor growth inhibition at 0.69 mg/kg administered once every two days for 15 days in the presence of adriamycin relative to control; type: functional; settings: 4T1, 360 h, time 15 day, read-out: TGI
HCC1806 [12] = experiment: Antitumor activity against human HCC1806 cells assessed as induction of phosphorylated p38 protein accumulation at 10 uM incubated for 24 hrs by Western blot analysis; type: functional, cell-based
4T1 [13] = experiment: Antitumor activity against mouse 4T1 cells implanted in BALB/C mouse assessed as tumor growth inhibition at 4 mg/kg administered once every two days for 15 days in the presence of toosendanin relative to control; type: functional; settings: 4T1, 360 h, time 15 day, read-out: TGI

Chain of RAC-alpha serine/threonine-protein kinase (Homo sapiens) (P31749 whole entry): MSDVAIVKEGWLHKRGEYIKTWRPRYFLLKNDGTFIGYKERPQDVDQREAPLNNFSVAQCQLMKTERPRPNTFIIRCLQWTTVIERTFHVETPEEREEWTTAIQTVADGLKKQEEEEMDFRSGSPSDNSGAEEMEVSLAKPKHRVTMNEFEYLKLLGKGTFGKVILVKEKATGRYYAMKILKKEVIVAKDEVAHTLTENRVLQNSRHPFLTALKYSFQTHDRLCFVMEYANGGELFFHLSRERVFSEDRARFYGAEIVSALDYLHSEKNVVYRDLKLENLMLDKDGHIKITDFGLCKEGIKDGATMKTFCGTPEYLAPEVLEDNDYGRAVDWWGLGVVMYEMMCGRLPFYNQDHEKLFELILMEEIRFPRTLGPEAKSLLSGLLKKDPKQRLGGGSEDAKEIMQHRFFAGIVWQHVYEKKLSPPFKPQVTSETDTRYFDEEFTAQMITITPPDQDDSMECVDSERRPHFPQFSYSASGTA

With `CC(=O)O[C@H]1C[C@@H](OC(C)=O)[C@]2(C)C(=O)OC[C@]13[C@H]1C(=O)[C@H](OC(C)=O)[C@@]4(C)[C@H](c5ccoc5)C[C@H]5O[C@]54[C@]1(C)[C@H](OC(C)=O)C[C@@H]23` the inhibition at 20 µM (HCC1806 [1]) was -9.68% and the inhibition at 20 µM (MDA-MB-231 [2]) was 4.86%.
Work on `CC(=O)O[C@@H]1C[C@H](O)[C@@]23COC[C@]1(C)[C@@H]2C[C@@H](OC(=O)c1ccccc1)[C@@]1(C)[C@@H]2C(=O)C[C@@H](c4ccoc4)[C@]2(C)[C@@H](OC(C)=O)C(=O)[C@@H]13` yielded an inhibition at 20 µM (HCC1806 [1]) of 14.9% and an inhibition at 20 µM (MDA-MB-231 [2]) of 20.7%.
With `CC(=O)O[C@@H]1C[C@H](O)[C@@]23CO[C@@H](O)[C@]1(C)[C@@H]2C[C@@H](O)[C@]1(C)[C@@H]3C(=O)[C@H](OC(C)=O)[C@@]2(C)[C@H](c3ccoc3)C[C@H]3O[C@]321` [TOOSENDANIN] the IC50 (MDA-MB-231 [3]) was 0.115 µM, the inhibition [4] was “Active” and the Activity (HCC1806 [5]) was “Active”. For the same molecule, the Activity (HCC1806 [6]) was “Active”, the inhibition at 20 µM (HCC1806 [1]) was 101% and the Activity (HCC1806 [7]) was “Active”. For the same molecule, the Activity (HCC1806 [8]) was “Active”, the IC50 (HCC1806 [9]) was 0.019 µM and the inhibition (HCC1806 [10]) was “Active”. The inhibition at 20 µM (MDA-MB-231 [2]) was 79.2%, the inhibition in vivo at 0.69 mg/kg (4T1 [11]) was 90% and the Activity (HCC1806 [12]) was “Active”.
With `COC1OC[C@]23[C@@H](O)C[C@@H](OC(C)=O)[C@@]1(C)[C@@H]2C[C@@H](O)[C@@]1(C)[C@@H]2C(=O)C[C@@H](c4ccoc4)[C@]2(C)[C@@H](OC(C)=O)C(=O)[C@@H]13` (stereo partly drawn) the inhibition at 20 µM (HCC1806 [1]) was -15.8% and the inhibition at 20 µM (MDA-MB-231 [2]) was 4.29%.
Molecule `CC(=O)O[C@@H]1C[C@H](O)[C@@]23COC(=O)[C@]1(C)[C@@H]2C[C@@H](O)[C@]1(C)[C@@H]3C(=O)C(O)[C@@]2(C)[C@H](c3ccoc3)C[C@H]3O[C@@]312` (mixture of isomers) has an inhibition at 20 µM (HCC1806 [1]) of 9.96% and an inhibition at 20 µM (MDA-MB-231 [2]) of 9.58%.
Molecule `CC(=O)O[C@@H]1C[C@H](O)[C@@]23COC[C@]1(C)[C@@H]2C[C@@H](O)[C@@]1(C)[C@@H]2C(=O)C[C@@H](c4ccoc4)[C@]2(C)[C@@H](OC(C)=O)C(=O)[C@@H]13` has an inhibition at 20 µM (HCC1806 [1]) of -42.3% and an inhibition at 20 µM (MDA-MB-231 [2]) of 5.4%.
With `CC(=O)O[C@@H]1C[C@H](O)[C@@]23COC[C@]1(C)[C@@H]2C[C@@H](O)[C@@]1(C)[C@@H]2/C(=N/O)C[C@@H](c4ccoc4)[C@]2(C)[C@@H](OC(C)=O)C(=O)[C@@H]13` the inhibition at 20 µM (HCC1806 [1]) was 10.9% and the inhibition at 20 µM (MDA-MB-231 [2]) was 4.72%.
For `COc1ccc(C(=O)O[C@@H]2C[C@H]3[C@@]4(C)COC[C@@]3([C@@H](O)C[C@H]4OC(C)=O)[C@H]3C(=O)[C@H](OC(C)=O)[C@]4(C)[C@@H](C(=O)C[C@H]4c4ccoc4)[C@]23C)cc1`, the inhibition at 20 µM (HCC1806 [1]) was 0.37% and the inhibition at 20 µM (MDA-MB-231 [2]) was 14.3%.
Work on `CC(=O)O[C@H]1C[C@@H](OC(C)=O)[C@]2(C)C(O)OC[C@]13[C@H]1C(=O)[C@H](OC(C)=O)[C@@]4(C)[C@H](c5ccoc5)C[C@H]5O[C@]54[C@]1(C)[C@H](OC(C)=O)C[C@@H]23` (stereo partly drawn) yielded an inhibition at 20 µM (HCC1806 [1]) of -27.9% and an inhibition at 20 µM (MDA-MB-231 [2]) of 6.36%.
`CC(=O)O[C@@H]1C[C@H](O)[C@@]23COC[C@]1(C)[C@@H]2C[C@@H](OC(=O)c1ccc([N+](=O)[O-])cc1)[C@@]1(C)[C@@H]2C(=O)C[C@@H](c4ccoc4)[C@]2(C)[C@@H](OC(C)=O)C(=O)[C@@H]13` gave an inhibition at 20 µM (HCC1806 [1]) of -0.88% and an inhibition at 20 µM (MDA-MB-231 [2]) of 3.95%.
`CC(=O)O[C@@H]1C[C@H](O)[C@@]23COC[C@]1(C)[C@@H]2CC(=O)[C@@]1(C)[C@@H]2C(=O)C[C@@H](c4ccoc4)[C@]2(C)[C@@H](OC(C)=O)C(=O)[C@@H]13` gave an inhibition at 20 µM (HCC1806 [1]) of 14.7% and an inhibition at 20 µM (MDA-MB-231 [2]) of 11.7%.
With `CC(=O)O[C@@H]1C[C@H](O)[C@@]23COC[C@]1(C)[C@@H]2C[C@@H](O)[C@@]1(C)[C@@H]2[C@@H](O)C[C@@H](c4ccoc4)[C@]2(C)[C@@H](OC(C)=O)C(=O)[C@@H]13` the IC50 (MDA-MB-231 [3]) was 11.8 µM, the inhibition at 20 µM (HCC1806 [1]) was 87.3% and the IC50 (HCC1806 [9]) was 5.76 µM. For the same molecule, the inhibition at 20 µM (MDA-MB-231 [2]) was 61.5%.
`CC(=O)OC1OC[C@]23[C@@H](OC(C)=O)C[C@@H](OC(C)=O)[C@@]1(C)[C@@H]2C[C@@H](OC(C)=O)[C@]1(C)[C@@H]3C(=O)[C@H](OC(C)=O)[C@@]2(C)[C@H](c3ccoc3)C[C@H]3O[C@@]312` (stereo partly drawn) showed an inhibition at 20 µM (HCC1806 [1]) of -31% and an inhibition at 20 µM (MDA-MB-231 [2]) of 128%.
In the case of `CC(=O)O[C@@H]1C[C@H](O)[C@@]23COC[C@]1(C)[C@@H]2C[C@@H](O)[C@@]1(C)[C@@H]2C(=O)C[C@@H](c4coc(Br)c4)[C@]2(C)[C@@H](OC(C)=O)C(=O)[C@@H]13`, the inhibition at 20 µM (HCC1806 [1]) is reported as 2.97% and the inhibition at 20 µM (MDA-MB-231 [2]) is reported as -5.16%.
`CC(=O)O[C@@H]1C[C@H](O)[C@@]23COC(=O)[C@]1(C)[C@@H]2C[C@@H](O)[C@@]1(C)[C@@H]2C(=O)C[C@@H](c4ccoc4)[C@]2(C)[C@@H](OC(C)=O)C(=O)[C@@H]13` gave an inhibition at 20 µM (HCC1806 [1]) of -24.7% and an inhibition at 20 µM (MDA-MB-231 [2]) of 6.87%.
For `COc1cccc2c1C(=O)c1c(O)c3c(c(O)c1C2=O)C[C@@](O)(C(=O)CO)C[C@@H]3O[C@H]1C[C@H](N)[C@H](O)[C@H](C)O1` [DOXORUBICIN HYDROCHLORIDE], the inhibition in vivo at 4 mg/kg (4T1 [13]) was 90%.
For `CC(=O)O[C@@H]1C[C@H](O)[C@@]23COC[C@]1(C)[C@@H]2C[C@@H](OC(=O)/C=C/c1ccc(OC(F)(F)F)cc1)[C@@]1(C)[C@@H]2C(=O)C[C@@H](c4ccoc4)[C@]2(C)[C@@H](OC(C)=O)C(=O)[C@@H]13`, the inhibition at 20 µM (HCC1806 [1]) was 18.1% and the inhibition at 20 µM (MDA-MB-231 [2]) was 9.9%.
With `CC(=O)O[C@@H]1C[C@H](O)[C@@]23COC(=O)[C@]1(C)[C@@H]2C[C@@H](O)[C@]1(C)[C@@H]3C(=O)[C@H](OC(C)=O)[C@@]2(C)[C@H](c3ccoc3)C[C@H]3O[C@]321` the IC50 (MDA-MB-231 [3]) was 6.61 µM, the inhibition [4] was “Active” and the Activity (HCC1806 [5]) was “Active”. The Activity (HCC1806 [6]) was “Active”, the inhibition at 20 µM (HCC1806 [1]) was 93.8% and the Activity (HCC1806 [7]) was “Active”. For the same molecule, the Activity (HCC1806 [8]) was “Active”, the IC50 (HCC1806 [9]) was 0.98 µM and the inhibition (HCC1806 [10]) was “Active”. For the same molecule, the inhibition at 20 µM (MDA-MB-231 [2]) was 68.7% and the Activity (HCC1806 [12]) was “Active”.
In the case of `CC(=O)O[C@@H]1C[C@H](O)[C@@]23COC[C@]1(C)[C@@H]2C[C@@H](OC(=O)c1ccccc1F)[C@@]1(C)[C@@H]2C(=O)C[C@@H](c4ccoc4)[C@]2(C)[C@@H](OC(C)=O)C(=O)[C@@H]13`, the inhibition at 20 µM (HCC1806 [1]) is reported as -1.53% and the inhibition at 20 µM (MDA-MB-231 [2]) is reported as 8.23%.
